Laboratory results reported in ChEMBL document CHEMBL1148536, “Safrole oxide induces apoptosis by activating caspase-3, -8, and -9 in A549 human lung cancer cells” (Bioorg Med Chem Lett, 2006).
Active and inactive are the calls of the source.

Assays:
Type in all cases: functional, cell-based
Caspase-8 (Homo sapiens) = Caspase-8 (Homo sapiens) (UniProt Q14790); experiment: Effect on caspase 8 activation to initiate apoptosis in A549 human lung cancer cell line
A549 [1] = experiment: Effect on caspase 3 activation to initiate apoptosis in A549 human lung cancer cell line
A549 [2] = experiment: Effect on caspase 9 activation to initiate apoptosis in A549 human lung cancer cell line

Measured: Activity

Sequence of Caspase-8 (Homo sapiens) (Q14790 217-374 limits assumed): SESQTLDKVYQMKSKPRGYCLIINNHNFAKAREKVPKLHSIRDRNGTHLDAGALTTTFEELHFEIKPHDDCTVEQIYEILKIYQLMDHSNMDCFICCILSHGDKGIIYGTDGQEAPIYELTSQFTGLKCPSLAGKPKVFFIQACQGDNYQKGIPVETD
Sequence of Caspase-8 (Homo sapiens) (Q14790 385-479 limits assumed): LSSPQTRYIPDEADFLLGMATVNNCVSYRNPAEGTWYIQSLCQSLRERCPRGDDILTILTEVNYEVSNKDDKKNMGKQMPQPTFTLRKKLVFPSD

c1cc2c(cc1CC1CO1)OCO2 (stereo not drawn)
active: all assays above
